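Assay format: 96-well plates, 48-hour exposure. GI50 marks 50% less growth. Definition used: TGI = concentration required for complete inhibition of growth.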
What was measured:
Assay in all cases: NCI tumour cell line growth inhibition, 48 h
UACC-257 melanoma = tested on: UACC-257 melanoma
SNB-19 CNS = tested on: SNB-19 CNS
CAKI-1 renal = tested on: CAKI-1 renal
MALME-3M melanoma = tested on: MALME-3M melanoma
SF-268 CNS = tested on: SF-268 CNS
A498 renal = tested on: A498 renal
SF-295 CNS = tested on: SF-295 CNS
RPMI-8226 leukemia = tested on: RPMI-8226 leukemia
MDA-MB-231 breast = tested on: MDA-MB-231 breast
786-0 renal = tested on: 786-0 renal

| SMILES | TGI (UACC-257 melanoma) | TGI (SNB-19 CNS) | TGI (CAKI-1 renal) | TGI (MALME-3M melanoma) | TGI (SF-268 CNS) | TGI (A498 renal) | TGI (SF-295 CNS) | TGI (RPMI-8226 leukemia) | TGI (MDA-MB-231 breast) | TGI (786-0 renal) | GI50 (UACC-257 melanoma) | GI50 (SNB-19 CNS) | GI50 (CAKI-1 renal) | GI50 (MALME-3M melanoma) | GI50 (SF-268 CNS) | GI50 (A498 renal) | GI50 (SF-295 CNS) | GI50 (RPMI-8226 leukemia) | GI50 (MDA-MB-231 breast) | GI50 (786-0 renal) |
| --- | --- | --- | --- | --- | --- | --- | --- | --- | --- | --- | --- | --- | --- | --- | --- | --- | --- | --- | --- | --- |
| N#CC(=S)Nc1cccc(Cl)c1 | > 100 µM | > 100 µM | > 100 µM | > 100 µM | > 100 µM | > 100 µM | > 100 µM | 61.4 µM | > 100 µM | > 100 µM |  |  |  |  |  |  |  |  |  |  |
| Oc1ccc(Cc2ccc(O)c3ncccc23)c2cccnc12 | 0.709 µM | 29.6 µM | > 100 µM | > 100 µM | > 100 µM | 0.706 µM | 0.948 µM | 1.55 µM | > 100 µM | > 100 µM | 0.236 µM | 0.0361 µM | 0.341 µM | 0.0497 µM | 0.0527 µM | 0.223 µM | 0.294 µM | 0.0424 µM | 0.0487 µM | 0.193 µM |
| CCN(Cc1cccc(OC)c1)c1ccc(CO)c(Cl)c1 | 0.295 µM | > 100 µM | 35.3 µM | 40.9 µM | 71.6 µM | 0.191 µM | 22 µM | 47.9 µM | 44 µM | 38.5 µM | 0.121 µM | 24 µM | 0.901 µM | 17.5 µM | 22.5 µM | 0.0598 µM | 0.889 µM | 6.44 µM | 14.9 µM | 12.4 µM |
| COc1cc(Nc2nc3cc(N)cc(N)c3nc2-c2ccccc2)cc(OC)c1 | 48 µM | > 100 µM | 73 µM | 24.6 µM | 55.8 µM | 22.4 µM | 59.2 µM | 10.4 µM | 34.3 µM | 50.8 µM | 15.9 µM | 58.3 µM | 14.9 µM | 4.34 µM | 5.59 µM | 4.91 µM | 12.5 µM | 1.27 µM | 6.5 µM | 17.7 µM |
| Cc1ccc2c(c1)nc(C(=O)c1ccco1)c(C(F)(F)F)[n+]2[O-] | > 100 µM | > 100 µM | > 100 µM | > 100 µM | > 100 µM | 3.06 µM | > 100 µM | > 100 µM | > 100 µM | > 100 µM | 63.4 µM | > 100 µM | 77 µM | > 100 µM | > 100 µM | 1.66 µM | 64 µM | 64.6 µM | > 100 µM | > 100 µM |
| CC1=C([Se]CC(OC(=O)CC[Se]c2ccccc2)C(=O)NCCCCCC(=O)OCc2ccccc2)C(=O)c2ccccc2C1=O (centres undefined) | 7.9 µM | 11 µM | 7.72 µM | 5.92 µM | 6.31 µM | 8.48 µM | 8.46 µM | 12.9 µM | 4.94 µM | 8.36 µM | 2.78 µM | 2.72 µM | 2.57 µM | 2.31 µM | 2.5 µM | 2.25 µM | 1.97 µM | 3.18 µM | 1.95 µM | 3.18 µM |
| C/C(=N/S(=O)(=O)c1ccc(Cl)c(Cl)c1)OCC(C)(C)C | > 100 µM | > 100 µM | > 100 µM | > 100 µM | > 100 µM | > 100 µM | > 100 µM | > 100 µM | > 100 µM | > 100 µM |  |  |  |  |  |  |  |  |  |  |
| CC(=O)OC[C@H]1O[C@@H](n2ccc(=O)[nH]c2=O)[C@H](OC(C)=O)[C@@H]1OC(C)=O | > 100 µM | > 100 µM | > 100 µM | > 100 µM | > 100 µM | > 100 µM | > 100 µM | > 100 µM | > 100 µM | > 100 µM | > 100 µM | > 100 µM | > 100 µM | > 100 µM | > 100 µM | > 100 µM | > 100 µM | > 100 µM | > 100 µM | > 100 µM |
| O=C(O)c1ccc2c(c1)Cc1cc([N+](=O)[O-])ccc1-2 | > 100 µM | > 100 µM | > 100 µM | > 100 µM | > 100 µM | > 100 µM | > 100 µM | 77.4 µM | > 100 µM | > 100 µM |  |  |  |  |  |  |  |  |  |  |
| COc1ccccc1-[n+]1cc(-c2ccc(-c3ccccc3)cc2)n2c1CCCCC2 | 12.9 µM | 12.1 µM | 33.4 µM | 0.869 µM | 14.8 µM | 7.5 µM | 4.03 µM | 1.53 µM | 2.39 µM | 11.5 µM | 0.318 µM | 0.261 µM | 11.5 µM | 0.158 µM | 0.423 µM | 0.615 µM | 0.359 µM |  | 0.276 µM | 1.31 µM |
| c1ccc(Cc2nc3ccc(Nc4ncnc5ccccc45)cc3[nH]2)cc1 | > 25 µM | > 25 µM | > 25 µM | > 25 µM | > 25 µM | > 25 µM | > 25 µM | > 25 µM | > 25 µM | > 25 µM | > 25 µM | > 25 µM | 8.34 µM | > 25 µM | > 25 µM | 9.41 µM | > 25 µM | 16.8 µM | > 25 µM | > 25 µM |

From PubChem BioAssay (NCI)
